Values quoted from earlier work, collected in patent US12630501B2, “Anti-fibrotic compounds and use thereof” (HADASIT MEDICAL RESEARCH SERVICES AND DEVELOPMENT LTD., priority 2019, dated 2026).

Key:
HDAC10 = molecular target: T1, HDAC10 (Homo sapiens, UniProt Q969S8); details: prostate cancer cells; cited from earlier work
T1 sequence (Q969S8 1-669): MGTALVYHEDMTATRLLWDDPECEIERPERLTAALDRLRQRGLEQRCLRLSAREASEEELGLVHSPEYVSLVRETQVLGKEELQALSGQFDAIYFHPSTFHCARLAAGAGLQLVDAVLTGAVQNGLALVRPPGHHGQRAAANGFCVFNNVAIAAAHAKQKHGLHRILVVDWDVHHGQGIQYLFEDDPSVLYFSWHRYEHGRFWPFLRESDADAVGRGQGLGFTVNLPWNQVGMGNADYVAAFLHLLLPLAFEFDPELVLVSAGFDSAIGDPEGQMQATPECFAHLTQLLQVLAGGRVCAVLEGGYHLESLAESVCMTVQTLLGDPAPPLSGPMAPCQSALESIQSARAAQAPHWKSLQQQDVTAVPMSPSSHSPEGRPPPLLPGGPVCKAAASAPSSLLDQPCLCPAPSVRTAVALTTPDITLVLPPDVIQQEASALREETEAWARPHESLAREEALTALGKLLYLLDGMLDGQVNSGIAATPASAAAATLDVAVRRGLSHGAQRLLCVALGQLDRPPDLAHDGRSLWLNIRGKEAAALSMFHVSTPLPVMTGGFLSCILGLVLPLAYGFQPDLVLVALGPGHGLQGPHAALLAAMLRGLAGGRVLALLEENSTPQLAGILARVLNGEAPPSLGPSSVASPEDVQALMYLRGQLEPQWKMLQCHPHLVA

HDAC7 = molecular target: T2, HDAC7 (Homo sapiens, UniProt Q8WUI4); details: prostate cancer cells; cited from earlier work
T2 sequence (Q8WUI4 1-952): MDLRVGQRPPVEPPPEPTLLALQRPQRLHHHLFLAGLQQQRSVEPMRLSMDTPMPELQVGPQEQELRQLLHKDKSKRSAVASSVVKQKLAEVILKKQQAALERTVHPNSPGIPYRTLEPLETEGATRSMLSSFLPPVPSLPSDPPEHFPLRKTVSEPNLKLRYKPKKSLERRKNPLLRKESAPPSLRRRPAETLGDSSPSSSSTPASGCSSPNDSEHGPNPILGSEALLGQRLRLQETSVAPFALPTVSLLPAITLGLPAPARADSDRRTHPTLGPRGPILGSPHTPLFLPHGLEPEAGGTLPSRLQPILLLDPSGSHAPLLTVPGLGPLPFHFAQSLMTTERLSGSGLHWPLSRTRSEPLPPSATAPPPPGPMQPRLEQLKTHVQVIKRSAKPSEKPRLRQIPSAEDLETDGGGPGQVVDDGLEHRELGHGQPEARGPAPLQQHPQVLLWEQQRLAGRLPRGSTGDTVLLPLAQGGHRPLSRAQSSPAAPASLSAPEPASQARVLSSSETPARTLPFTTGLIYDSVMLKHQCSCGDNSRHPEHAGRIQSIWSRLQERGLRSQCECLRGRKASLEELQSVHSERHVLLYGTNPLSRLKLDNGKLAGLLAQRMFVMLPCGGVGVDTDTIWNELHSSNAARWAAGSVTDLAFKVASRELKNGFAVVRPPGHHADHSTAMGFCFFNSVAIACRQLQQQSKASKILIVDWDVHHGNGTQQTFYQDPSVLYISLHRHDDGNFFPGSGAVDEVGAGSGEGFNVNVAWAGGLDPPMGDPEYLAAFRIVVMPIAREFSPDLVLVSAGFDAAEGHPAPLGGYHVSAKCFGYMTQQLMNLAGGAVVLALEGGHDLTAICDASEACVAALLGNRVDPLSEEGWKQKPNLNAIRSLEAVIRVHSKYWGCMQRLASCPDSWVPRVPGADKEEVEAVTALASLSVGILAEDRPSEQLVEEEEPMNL

In the case of `Cc1cc(Cl)ccc1OCCCC(=O)NO` [CMH, 4-(4-chloro-2-methylphenoxy)-N-hydroxybutanamide], the “Inhibition of HDAC10” value (HDAC10) is listed as “not inhibited” and the “Inhibition of HDAC7” value (HDAC7) is listed as “not inhibited”.
